Reference: US20250171448A1, “SOLID STATE FORMS OF GUSACITINIB” (TEVA PHARMACEUTICALS INTERNATIONAL GMBH, priority 2022, published 2025)
Values belong to the compound of their own block, whether it stands above or below them.

How the values were obtained:
Type in all cases: physicochemical
[1] = Storage stability at different relative humidity (XRPD after 7 days); settings: ambient temperature; for XRPD analysis results 60% (7 days): polymorphic conversion: 60% relative humidity
Procedure: Samples of Gusacitinib Forms: GS2, GS3, GS4 and Gusacitinib HCl salt Forms GHC11, GHC12, GHC18 were subjected to conditions of different relative humidity at ambient temperature. XRPD analysis was performed on the samples after 7 days.
A sample of Form GHC13 of Gusacitinib HCl salt was subjected to 60% relative humidity for 7 days.

[2] = Stability under tested stress conditions (grinding, pressure of 2 tons, humidity, temperature), summary statements; settings: strong grinding; for stability under all tested stress conditions: high temperature up to 100° C.
[3] = Grinding experiments (strong grinding and solvent drop grinding, XRPD)
Procedure: Samples of Gusacitinib Forms: GS2, GS3, GS4 and Gusacitinib HCl salt Forms: GHC11, GHC12, GHC13, GHC18 were subjected to strong grinding, and to solvent drop grinding in isopropanol, ethanol and water. Grinding was carried out on the sample alone, or in the presence of the solvent. In these experiments, about 20 mg of the sample is placed in a mortar and ground with a pestle for 2 minutes. The solvent, when used, was added to the crystalline material before grinding, in a volume of 10 microlitres. XRPD analysis performed on the sample after the grinding experiment, confirmed no conversion of the starting material (Table 2): […]

[4] = Thermal stability (heating up to 100° C. for 30 minutes, XRPD)
Procedure: Samples of Gusacitinib Forms: GS2, GS3, GS4 and Gusacitinib HCl salt Forms GHC11, GHC12 and GHC18 were subjected to heating up to 100° C. for 30 minutes. XRPD analysis of the samples confirmed there to be no change in the starting material (Table 3): […]

- XRPD analysis results 60% (7 days): polymorphic conversion ([1]; listed as GHCl8): No
Structure (SMILES): N#CCC1CCN(c2nc(Nc3ccc(N4CCC(O)CC4)cc3)c3c(=O)[nH]ncc3n2)CC1 [Form GHC18]

- XRPD analysis results 60% (7 days): polymorphic conversion ([1]; listed as GS2): No
- XRPD analysis results, Solvent-drop grinding (ethanol) ([3]; about 20 mg ground 2 minutes, 10 microlitres ethanol): No polymorphic
- XRPD analysis results, Solvent-drop grinding (isopropyl alcohol) ([3]; about 20 mg ground 2 minutes, 10 microlitres isopropyl alcohol): No polymorphic
- XRPD analysis results, Solvent-drop grinding (water) ([3]; about 20 mg ground 2 minutes, 10 microlitres water): No polymorphic
- XRPD analysis results, Strong grinding ([3]; about 20 mg ground with mortar and pestle for 2 minutes, no solvent): No polymorphic
- Result, Heating 100° C., 30 minutes [4]: Stable
Structure (SMILES): N#CCC1CCN(c2nc(Nc3ccc(N4CCC(O)CC4)cc3)c3c(=O)[nH]ncc3n2)CC1 [Form GS2, 2-[1-[4-[4-(4-hydroxypiperidin-1-yl)anilino]-5-oxo-6H-pyrimido[4,5-d]pyridazin-2-yl]piperidin-4-yl]acetonitrile]

- XRPD analysis results 60% (7 days): polymorphic conversion ([1]; listed as GS3): No
Structure (SMILES): N#CCC1CCN(c2nc(Nc3ccc(N4CCC(O)CC4)cc3)c3c(=O)[nH]ncc3n2)CC1 [Form GS3, 2-[1-[4-[4-(4-hydroxypiperidin-1-yl)anilino]-5-oxo-6H-pyrimido[4,5-d]pyridazin-2-yl]piperidin-4-yl]acetonitrile]

- XRPD analysis results 60% (7 days): polymorphic conversion ([1]; listed as GS4): No
- XRPD analysis results 80% (7 days): polymorphic conversion ([1]; 80% relative humidity): No
- XRPD analysis results 100% (7 days): polymorphic conversion ([1]; 100% relative humidity): No
- stability under all tested stress conditions ([2]; high humidity up to 80% RH for 7 days): stable
Structure (SMILES): N#CCC1CCN(c2nc(Nc3ccc(N4CCC(O)CC4)cc3)c3c(=O)[nH]ncc3n2)CC1 [Form GS4, 2-[1-[4-[4-(4-hydroxypiperidin-1-yl)anilino]-5-oxo-6H-pyrimido[4,5-d]pyridazin-2-yl]piperidin-4-yl]acetonitrile]

Continued, compound first:

Structure (SMILES): N#CCC1CCN(c2nc(Nc3ccc(N4CCC(O)CC4)cc3)c3c(=O)[nH]ncc3n2)CC1 [Form GHC11]
- XRPD analysis results 60% (7 days): polymorphic conversion ([1]; listed as GHCl1): No
- stability under all tested stress conditions ([2]; high humidity up to 100% RH for 7 days): stable

Structure (SMILES): N#CCC1CCN(c2nc(Nc3ccc(N4CCC(O)CC4)cc3)c3c(=O)[nH]ncc3n2)CC1 [Form GHC12]
- XRPD analysis results 60% (7 days): polymorphic conversion ([1]; listed as GHCl2): No

Structure (SMILES): N#CCC1CCN(c2nc(Nc3ccc(N4CCC(O)CC4)cc3)c3c(=O)[nH]ncc3n2)CC1 [Form GHC13]
- XRPD analysis results 60% (7 days): polymorphic conversion [1]: no polymorphic conversion
- stability under tested stress conditions ([2]; high humidity up to 60% RH for 7 days): stable
